Measured values: BindingDB's records for doi:10.1021/jm300491y (San Francisco State University, 2012)

Assay: Inhibition of UT-B in wild type CD1 mouse erythrocyte assessed as hemolysis after 10 mins

Row | SMILES | IC50 [µM]
1 | CC(C)c1ccc(S(=O)(=O)c2nnn3c2nc(NCc2cccc4ccccc24)c2sccc23)cc1 | > 2.5
2 | Cc1ccc(S(=O)(=O)c2nnn3c2nc(N2CCCCC2)c2sccc23)cc1C | > 25
3 | CCc1ccc(S(=O)(=O)c2nnn3c2nc(N2CCOCC2)c2sccc23)cc1 | 5.6
